# Data as given in article PMC8079033, “Design, synthesis, anticancer evaluation, and molecular modelling studies of novel tolmetin derivatives as potential VEGFR-2 inhibitors and apoptosis inducers” (Journal of Enzyme Inhibition and Medicinal Chemistry, 2021).
# How the values were obtained:
# [1] = test system: SK-MEL-5; assay: NCI 60-cell line one-dose antiproliferative screen (SRB); format: cell-based; details: Homo sapiens, read-out: growth inhibition % (GI%)
# Method: (§1) Anticancer activity screening of the newly synthesised compounds was measured in vitro utilising 60 different human tumour cell lines provided by US National Cancer Institute according to previously reported standard procedure[41–43] as follows: Cells are inoculated into 96-well microtiter plates in 100 ml. After cell inoculation, the microtiter plates are incubated at 37 °C, 5% CO2, 95% air, and 100% relative humidity for 24 h prior to addition of experimental compounds. After 24 h, two plates of each cell line are fixed in situ with TCA, to represent a measurement of the cell population for each cell line at the time of compound addition (Tz). Experimental compounds are solubilised in dimethyl sulfoxide at 400-fold the desired final maximum test concentration and stored frozen prior to use. At the time of compound addition, an aliquot of frozen concentrate is thawed and diluted to twice the desired final maximum test concentration with a complete medium containing […] gentamicin. Aliquots of […] of the compounds dilutions are added to the appropriate microtiter wells already containing 100 ml of medium, resulting in the required final compound concentration. Following compound addition, the plates are incubated for an additional 48 h at 37 °C, 5% CO2, 95% air, and 100% relative humidity. For adherent cells, the assay is terminated by the addition of cold trichloroacetic acid (TCA). Cells are fixed in situ by the gentle addition of 50 ml of cold 50% (w/v) TCA (final concentration, 10% TCA) and incubated for […] at 4 °C. The supernatant is discarded, and the plates are washed five times with tap water and air-dried. Sulforhodamine B (SRB) solution (100 ml) at 0.4% (w/v) in 1% acetic acid is added to each well, and plates are incubated for 10 min at room temperature. After staining, the unbound dye is removed by washing five times with 1% acetic acid and the plates are air-dried. The bound stain is subsequently solubilised with a 10 mM trizma base, and the absorbance is read on an automated plate reader at a wavelength of 515 nm. For suspension cells, the methodology is the same except that the assay is terminated by fixing settled cells at the bottom of the wells by gently adding 50 ml of 80% TCA (final concentration, 16% TCA). Using the absorbance measurements [time zero, (Tz), control growth, (C), and test growth in the presence of compound (Ti)], the percentage growth is calculated for each compound. The One-dose data are reported as a mean graph of the percent growth of treated cells. The reported number is growth relative to the no-compound control, and relative to the time zero number of cells. This allows the detection of both growth inhibition and lethality.
# (§2) Fifteen newly synthesised compounds were tested for their in vitro antiproliferative activity by the National Cancer Institute (NCI), Maryland, USA[50], under the Developmental Therapeutic Program (DTP)[41]^,[43]^,[51]^,[52]. The tested compounds were evaluated at a concentration of 10 µM on a panel of 60 tumour cell lines representing leukaemia and non-small cell lung, colon, CNS, melanoma, ovarian, renal, prostate, and breast cancers. The antiproliferative activity was presented by the NCI as percent growth of the treated cells and is presented in Table 1 as growth inhibition percentage (GI%) achieved by the tested compounds.
# [2] = test system: NCI-H522; assay: as above; format: cell-based; details: Homo sapiens, read-out: growth inhibition % (GI%)
# Method: as §1, §2
# [3] = test system: SF-268; assay: as above; format: cell-based; details: Homo sapiens, read-out: growth inhibition % (GI%)
# Method: as §1, §2
# [4] = test system: SNB-75; assay: as above; format: cell-based; details: Homo sapiens, read-out: growth inhibition % (GI%)
# Method: as §1, §2
# [5] = test system: CAKI-1; assay: as above; format: cell-based; details: Homo sapiens, read-out: growth inhibition % (GI%)
# Method: as §1, §2
# [6] = test system: HCT-116; assay: as above; format: cell-based; details: Homo sapiens, read-out: growth inhibition % (GI%)
# Method: as §1, §2
# [7] = test system: ACHN; assay: as above; format: cell-based; details: Homo sapiens, read-out: growth inhibition % (GI%)
# Method: as §1, §2
# [8] = test system: HOP-92; assay: as above; format: cell-based; details: Homo sapiens, read-out: growth inhibition % (GI%)
# Method: as §1, §2
# [9] = test system: SNB-19; assay: as above; format: cell-based; details: Homo sapiens, read-out: growth inhibition % (GI%)
# Method: as §1, §2
# [10] = test system: OVCAR-5; assay: as above; format: cell-based; details: Homo sapiens, read-out: growth inhibition % (GI%)
# Method: as §1, §2
# [11] = test system: NCI-H23; assay: as above; format: cell-based; details: Homo sapiens, read-out: growth inhibition % (GI%)
# Method: as §1, §2
# [12] = test system: MALME-3M; assay: as above; format: cell-based; details: Homo sapiens, read-out: growth inhibition % (GI%)
# Method: as §1, §2
# [13] = test system: MCF7; assay: as above; format: cell-based; details: Homo sapiens, read-out: growth inhibition % (GI%)
# Method: as §1, §2
# [14] = test system: SN 12 C; assay: as above; format: cell-based; details: Homo sapiens, SN12C, read-out: growth inhibition % (GI%)
# Method: as §1, §2
# [15] = test system: PC-3; assay: as above; format: cell-based; details: Homo sapiens, read-out: growth inhibition % (GI%)
# Method: as §1, §2
# [16] = test system: SR; assay: as above; format: cell-based; details: Homo sapiens, read-out: growth inhibition % (GI%)
# Method: as §1, §2
# [17] = test system: UO-31; assay: as above; format: cell-based; details: Homo sapiens, read-out: growth inhibition % (GI%)
# Method: as §1, §2
# [18] = test system: OVCAR-8; assay: as above; format: cell-based; details: Homo sapiens, read-out: growth inhibition % (GI%)
# Method: as §1, §2
# [19] = test system: M14; assay: as above; format: cell-based; details: Homo sapiens, read-out: growth inhibition % (GI%)
# Method: as §1, §2
# [20] = test system: A549/ATCC; assay: as above; format: cell-based; details: Homo sapiens, read-out: growth inhibition % (GI%)
# Method: as §1, §2
# [21] = test system: SF-539; assay: as above; format: cell-based; details: Homo sapiens, read-out: growth inhibition % (GI%)
# Method: as §1, §2
# [22] = test system: K-562; assay: as above; format: cell-based; details: Homo sapiens, K562, read-out: growth inhibition % (GI%)
# Method: as §1, §2
# [23] = test system: NCI-H226; assay: as above; format: cell-based; details: Homo sapiens, read-out: growth inhibition % (GI%)
# Method: as §1, §2
# [24] = test system: LOX IMVI; assay: as above; format: cell-based; details: Homo sapiens, read-out: growth inhibition % (GI%)
# Method: as §1, §2
# [25] = test system: UACC-62; assay: as above; format: cell-based; details: Homo sapiens, read-out: growth inhibition % (GI%)
# Method: as §1, §2
# [26] = test system: KM12; assay: as above; format: cell-based; details: Homo sapiens, read-out: growth inhibition % (GI%)
# Method: as §1, §2
# [27] = test system: IGROV1; assay: as above; format: cell-based; details: Homo sapiens, IGROV-1, read-out: growth inhibition % (GI%)
# Method: as §1, §2
# [28] = test system: MDA-MB-435; assay: as above; format: cell-based; details: Homo sapiens, read-out: growth inhibition % (GI%)
# Method: as §1, §2
# [29] = test system: OVCAR-4; assay: as above; format: cell-based; details: Homo sapiens, read-out: growth inhibition % (GI%)
# Method: as §1, §2
# [30] = test system: EKVX; assay: as above; format: cell-based; details: Homo sapiens, read-out: growth inhibition % (GI%)
# Method: as §1, §2
# [31] = test system: NCI-H322M; assay: as above; format: cell-based; details: Homo sapiens, read-out: growth inhibition % (GI%)
# Method: as §1, §2
# [32] = test system: RPMI-8226; assay: as above; format: cell-based; details: Homo sapiens, read-out: growth inhibition % (GI%)
# Method: as §1, §2
# [33] = test system: NCI/ADR-RES; assay: as above; format: cell-based; details: Homo sapiens, read-out: growth inhibition % (GI%)
# Method: as §1, §2
# [34] = test system: MDA-MB-231/ATCC; assay: as above; format: cell-based; details: Homo sapiens, read-out: growth inhibition % (GI%)
# Method: as §1, §2
# [35] = test system: A498; assay: as above; format: cell-based; details: Homo sapiens, read-out: growth inhibition % (GI%)
# Method: as §1, §2
# [36] = test system: UACC-257; assay: as above; format: cell-based; details: Homo sapiens, read-out: growth inhibition % (GI%)
# Method: as §1, §2
# [37] = test system: MDA-MB-468; assay: as above; format: cell-based; details: Homo sapiens, read-out: growth inhibition % (GI%)
# Method: as §1, §2
# [38] = test system: U251; assay: as above; format: cell-based; details: Homo sapiens, U-251, read-out: growth inhibition % (GI%)
# Method: as §1, §2
compound,measurement,setting,value
"Cc1ccc(C(=O)c2ccc(CC(=O)NN=C3C(=O)Nc4ccc(Br)cc43)n2C)cc1 [Compound 6b, N′-(5-Bromo-2-oxoindolin-3-ylidene)-2–(1-methyl-5–(4-methylbenzoyl)-1H-pyrrol-2-yl)acetohydrazide]",inhibition at 10 µM,[1],< 10%
same,inhibition at 10 µM,[2],13.2%
same,inhibition at 10 µM,[3],< 10%
same,inhibition at 10 µM,[4],36.3%
same,inhibition at 10 µM,[5],15.4%
same,inhibition at 10 µM,[6],< 10%
same,inhibition at 10 µM,[7],< 10%
same,inhibition at 10 µM,[8],< 10%
same,inhibition at 10 µM,[9],< 10%
same,inhibition at 10 µM,[10],< 10%
same,inhibition at 10 µM,[11],13.7%
same,inhibition at 10 µM,[12],< 10%
same,inhibition at 10 µM,[13],< 10%
same,inhibition at 10 µM,[14],< 10%
same,inhibition at 10 µM,[15],< 10%
same,inhibition at 10 µM,[16],< 10%
same,inhibition at 10 µM,[17],25%
same,inhibition at 10 µM,[18],< 10%
same,inhibition at 10 µM,[19],< 10%
same,inhibition at 10 µM,[20],< 10%
same,inhibition at 10 µM,[21],< 10%
same,inhibition at 10 µM,[22],10.6%
same,inhibition at 10 µM,[23],< 10%
same,inhibition at 10 µM,[24],10%
same,inhibition at 10 µM,[25],< 10%
same,inhibition at 10 µM,[26],< 10%
same,inhibition at 10 µM,[27],< 10%
same,inhibition at 10 µM,[28],< 10%
same,inhibition at 10 µM,[29],10.1%
same,inhibition at 10 µM,[30],< 10%
same,inhibition at 10 µM,[31],< 10%
same,inhibition at 10 µM,[32],< 10%
same,inhibition at 10 µM,[33],< 10%
same,inhibition at 10 µM,[34],< 10%
same,inhibition at 10 µM,[35],10.2%
same,inhibition at 10 µM,[36],< 10%
same,inhibition at 10 µM,[37],< 10%
same,inhibition at 10 µM,[38],34.4%
same,melting point,,195 to 197 °C
